Laboratory results as given in patent US9751854B2 (Millennium Pharmaceuticals, Inc., priority 2014, dated 2017).

Target: human VPS34 (Homo sapiens (Human), UniProt Q8NEB9)
Assay: Human VPS34 enzyme assay (Adapta TR-FRET ADP detection)
Type: biochemical
Design: Percent Inhibition: dose or concentration left out as unconfirmed
Details: for IC50: IC50 range class

Sequence of human VPS34 (Q8NEB9 whole entry): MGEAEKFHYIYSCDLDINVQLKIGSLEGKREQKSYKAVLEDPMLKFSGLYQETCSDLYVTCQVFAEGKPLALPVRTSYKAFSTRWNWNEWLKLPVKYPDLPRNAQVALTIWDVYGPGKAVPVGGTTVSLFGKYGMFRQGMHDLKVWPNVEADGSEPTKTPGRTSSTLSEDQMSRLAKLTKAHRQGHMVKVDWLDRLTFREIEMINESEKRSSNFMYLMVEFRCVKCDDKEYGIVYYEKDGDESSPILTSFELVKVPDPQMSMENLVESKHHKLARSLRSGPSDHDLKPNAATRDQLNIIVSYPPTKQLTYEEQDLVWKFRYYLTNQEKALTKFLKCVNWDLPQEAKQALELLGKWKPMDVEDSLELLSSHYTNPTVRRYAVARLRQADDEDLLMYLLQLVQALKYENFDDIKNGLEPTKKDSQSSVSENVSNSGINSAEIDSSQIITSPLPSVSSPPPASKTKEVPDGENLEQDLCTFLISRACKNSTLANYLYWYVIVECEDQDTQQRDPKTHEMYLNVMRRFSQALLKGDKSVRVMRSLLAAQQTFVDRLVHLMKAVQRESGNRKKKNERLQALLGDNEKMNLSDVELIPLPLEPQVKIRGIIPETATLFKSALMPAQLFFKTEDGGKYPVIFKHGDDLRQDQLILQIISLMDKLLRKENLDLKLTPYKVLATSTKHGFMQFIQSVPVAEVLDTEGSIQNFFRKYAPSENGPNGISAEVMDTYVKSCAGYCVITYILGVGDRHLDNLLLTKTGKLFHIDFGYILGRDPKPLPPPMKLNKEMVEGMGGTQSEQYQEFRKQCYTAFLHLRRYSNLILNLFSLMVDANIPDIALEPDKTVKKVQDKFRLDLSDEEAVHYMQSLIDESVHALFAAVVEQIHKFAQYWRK

Structure (SMILES)	IC50	Percent Inhibition
COc1nccc(Nc2cc(-c3cncc(C(=O)N(C)C45CC(C4)C5)c3)ccn2)n1 [Compound I-245, N-(bicyclo[1.1.1]pent-1-yl)-2′-[(2-methoxypyrimidin-4-yl)amino]-N-methyl-3,4′-bipyridine-5-carboxamide]	10 to 50 nM	–
Cc1ncc(-c2ccnc(Nc3ccnc(C4CC4)n3)c2)cc1C(=O)N1CCC1 [Compound I-246, azetidin-1-yl{2′-[(2-cyclopropylpyrimidin-4-yl)amino]-6-methyl-3,4′-bipyridin-5-yl}methanone]	10 to 50 nM	–
CC(=O)Nc1cc(-c2cnc(C)c(NS(=O)(=O)c3ccc(F)cc3F)c2C)ccn1 [Compound I-247, N-(5-{[(2,4-difluorophenyl)sulfonyl]amino}-4,6-dimethyl-3,4′-bipyridin-2′-yl)acetamide]	10 to 50 nM	–
COc1ncc(-c2ccnc(NC(C)=O)c2)c(C)c1NS(=O)(=O)c1ccc(F)cc1F [Compound I-248, N-(5-{[(2,4-difluorophenyl)sulfonyl]amino}-6-methoxy-4-methyl-3,4′-bipyridin-2′-yl)acetamide]	10 to 50 nM	–
Cc1nccc(Nc2cc(-c3cnc(C)c(NC(=O)c4ccc(F)cc4F)c3)ccn2)n1 [Compound I-249, 2,4-difluoro-N-{6-methyl-2′-[(2-methylpyrimidin-4-yl)amino]-3,4′-bipyridin-5-yl}benzamide]	50 to 100 nM	–
CC(=O)Nc1cc(-c2cnc(Cl)c(NS(=O)(=O)c3ccc(F)cc3F)c2C)c(C)cn1 [Compound I-250, N-(6-chloro-5-{[(2,4-difluorophenyl)sulfonyl]amino}-4,5′-dimethyl 3,4′-bipyridin-2′-yl)acetamide]	10 to 50 nM	–
CC(=O)Nc1cc(-c2cnc(Cl)c(NS(=O)(=O)c3ccccc3F)c2C)ccn1 [Compound I-251, N-(6-chloro-5-{[(2-fluorophenyl)sulfonyl]amino}-4-methyl-3,4′-bipyridin-2′-yl)acetamide]	10 to 50 nM	–
COc1ncc(-c2ccnc(Nc3ccnc(C)n3)c2)cc1C(=O)N(C)c1ccc(F)cc1F [Compound I-252, N-(2,4-difluorophenyl)-6-methoxy-N-methyl-2′-[(2-methylpyrimidin-4-yl)amino]-3,4′-bipyridine-5-carboxamide]	10 to 50 nM	–
Cc1nccc(Nc2cc(-c3cnc(C)c(C(=O)O)c3)ccn2)n1 [Compound I-253, 6-methyl-2′-((2-methylpyrimidin-4-yl)amino)-[3,4′-bipyridine]-5-carboxylic acid]	10 to 50 nM	–
Cc1c(-c2ccnc(NC(=O)C3CC3(F)F)c2)cnc(Cl)c1NS(=O)(=O)c1ccc(F)cc1F (stereo not shown) [Compound I-254, N-(6-chloro-5-{[(2,4-difluorophenyl)sulfonyl]amino}-4-methyl-3,4′-bipyridin-2′-yl)-2,2-difluorocyclopropanecarboxamide]	10 to 50 nM	–
CNc1c(Cl)ncc(-c2ccnc(Nc3ccnc(C)n3)c2)c1C [Compound I-256, 6-chloro-N-5-4-dimethyl-N-2-(2-methylpyrimidin-4-yl)-3,4′-bipyridine-2′,5-diamine]	10 to 50 nM	–
CC(=O)Nc1cc(-c2cnc(C)c(NS(=O)(=O)N3CCC3)c2)ccn1 [Compound I-257, N-{5-[(azetidin-1-ylsulfonyl)amino]-6-methyl-3,4′-bipyridin-2′-yl}acetamide]	10 to 50 nM	–
CC(=O)Nc1cc(-c2cc(NS(=O)(=O)c3ccc(F)cc3F)c(C)[n+]([O-])c2)ccn1 [Compound I-258, N-[4-(5-{[(2,4-difluorophenyl)sulfonyl]amino}-6-methyl-1-oxidopyridin-3-yl)pyridin-2-yl]acetamide]	10 to 50 nM	–
CC(=O)Nc1cc(-c2cnc(C)c(NS(=O)(=O)N(C)C)c2C)ccn1 [Compound I-260, N-{5-[(dimethylsulfamoyl)amino]-4,6-dimethyl-3,4′-bipyridin-2′-yl}acetamide]	10 to 50 nM	–
Cc1nccc(Nc2cc(-c3cnc(C)c(C(=O)N4CCCCC4)c3)ccn2)n1 [Compound I-262, [6-methyl-2′-[(2-methylpyrimidin-4-yl)amino]-3,4′-bipyridin-5-yl](piperidin-1-yl)methanone]	10 to 50 nM	–
Cc1ncc(-c2ccnc(-n3cnc4c(C)nccc43)c2)cc1NS(=O)(=O)N(C)C [Compound I-263, N,N-dimethyl-N′-[6-methyl-2′-(4-methyl-1H-imidazol[4,5-c]pyridin-1-yl)-3,4′-bipyridin-5-yl]sulfuric diamide]	> 100 nM	–
Cc1nccc(Nc2cc(-c3cnc(C)c(C(=O)N(C)C)c3)ccn2)n1 [Compound I-266, N,N,6-trimethyl-2′-[(2-methylpyrimidin-4-yl)amino]-3,4′-bipyridine-5-carboxamide]	10 to 50 nM	–
COc1ncc(-c2ccnc(NC(C)=O)c2)c(C)c1NS(=O)(=O)N(C)C [Compound I-268, N-{5-[(dimethylsulfamoyl)amino]-6-methoxy-4-methyl-3,4′-bipyridin-2′-yl}acetamide]	> 100 nM	–
CC(=O)Nc1cc(-c2cnc(C)c(NS(=O)(=O)N3CCN(C)CC3)c2)ccn1 [Compound I-269, N-(6-methyl-5-{[(4-methylpiperazin-1-yl)sulfonyl]amino}-3,4′-bipyridin-2′-yl)acetamide]	10 to 50 nM	–
Cc1ncc(-c2ccnc(Nc3nc4ccccc4s3)c2)cc1NS(=O)(=O)c1ccc(F)cc1F [Compound I-271, N-[2′-(1,3-benzothiazol-2-ylamino)-6-methyl-3,4′-bipyridin-5-yl]-2,4-difluorobenzenesulfonamide]	10 to 50 nM	–
Cc1cc(Nc2cc(-c3cnc(Cl)c(NS(=O)(=O)c4ccc(F)cc4F)c3C)ccn2)ccn1 [Compound I-272, N-{6-chloro-4-methyl-2′-[(2-methylpyridin-4-yl)amino]-3,4′-bipyridin-5-yl}-2,4-difluorobenzenesulfonamide]	50 to 100 nM	–
CC(=O)Nc1cc(-c2cnc(C)c(NS(=O)(=O)N3CCCC3)c2)ccn1 [Compound I-274, N-{6-methyl-5-[(pyrrolidin-1-ylsulfonyl)amino]-3,4′-bipyridin-2′-yl}acetamide]	10 to 50 nM	–
Cc1nccc(Nc2cc(-c3cnc(C)c(C(=O)N(C)C45CC(C4)C5)c3)ccn2)n1 [Compound I-275, N-(bicyclo[1.1.1]pent-1-yl)-N,6-dimethyl-2′-[(2-methylpyrimidin-4-yl)amino]-3,4′-bipyridine-5-carboxamide]	10 to 50 nM	–
Cc1nccc(Nc2cc(-c3cnc(N)c(C(=O)N(C)C45CC(C4)C5)c3)ccn2)n1 [Compound I-277, 6-amino-N-(bicyclo[1.1.1]pent-1-yl)-N-methyl-2′-[(2-methylpyrimidin-4-yl)amino]-3,4′-bipyridine-5-carboxamide]	< 10 nM	100%

Continued, values first:

IC50	Percent Inhibition	Structure (SMILES)
10 to 50 nM	–	Cc1ncc(-c2ccnc(Nc3ccnc(C(F)(F)F)n3)c2)cc1NS(=O)(=O)c1ccc(F)cc1F [Compound I-237, 2,4-difluoro-N-(6-methyl-2′-{[2-(trifluoromethyl)pyrimidin-4-yl]amino}-3,4′-bipyridine-5-yl)benzenesulfonamide]
< 10 nM	93%	Cc1nc(Nc2cc(-c3cnc(Cl)c(NS(=O)(=O)c4ccc(F)cc4F)c3C)ccn2)ccc1C#N [Compound I-238, N-[6-chloro-2′-[(5-cyano-6-methylpyridin-2-yl)amino]-4-methyl-3,4′-bipyridin-5-yl]-2,4-difluorobenzenesulfonamide]
< 10 nM	–	Cc1ncc(-c2ccnc(Nc3ccncn3)c2)cc1NS(=O)(=O)c1ccc(F)cc1F [Compound I-239, 2,4-difluoro-N-(6-methyl-2′-(pyrimidin-4-ylamino)-3,4′-bipyridin-5-yl]benzenesulfonamide]
10 to 50 nM	–	CC(=O)Nc1cc(-c2cnc(Cl)c(NS(=O)(=O)c3ccccc3Cl)c2C)ccn1 [Compound I-240, N-(6-chloro-5-{[(2-chlorophenyl)sulfoayl]amino}-4-methyl-3,4′-bipyridin-2′-yl)acetamide]
10 to 50 nM	–	COC(=O)Nc1cc(-c2cnc(C)c(NS(=O)(=O)N(C)C)c2)ccn1 [Compound I-241, methyl (5-[(dimethylsulfamoyl)amino]-6-methyl-3,4′-bipyridin-2′-yl]carbamate]
10 to 50 nM	–	Cc1nccc(Nc2cc(-c3cnc(Cl)c(S(=O)(=O)NC45CC(C4)C5)c3)ccn2)n1 [Compound I-242, N-(bicyclo[1.1.1]pent-1-yl)-6-chloro-2′-[(2-methylpyrimidin-4-yl)amino]-3,4′-bipyridine-5-sulfonamide]
10 to 50 nM	–	CC(=O)Nc1cc(-c2cnc(Cl)c(NS(=O)(=O)c3ccc(Cl)cc3Cl)c2C)ccn1 [Compound I-243, N-(6-chloro-5-{[(2,4-dichlorophenyl)sulfonyl]amino}-4-methyl-3,4′-bipyridin-2′-yl)acetamide]
10 to 50 nM	–	Cc1ncc(-c2ccnc(NC(=O)C3CC3(F)F)c2)cc1NS(=O)(=O)N(C)C (stereo not shown) [Compound I-244, N-{5-[(dimethylsulfamoyl)amino]-6-methyl-3,4′-bipyridin-2′-yl}-2,2-difluorocyclopropanecarboxamide]
< 10 nM	–	COC(=O)Nc1cc(-c2cnc(Cl)c(NS(=O)(=O)c3ccc(F)cc3F)c2C)ccn1 [Compound I-255, methyl (6-chloro-5-{[(2,4-difluorophenyl)sulfonyl]amino}-4-methyl-3,4′-bipyridin-2′-yl)carbamate]
< 10 nM	79%	CCc1c(-c2ccnc(Nc3ccnc(C)n3)c2)cnc(Cl)c1NS(=O)(=O)c1ccc(F)cc1F [Compound I-259, N-{6-chloro-4-ethyl-2′-[(2-methylpyrimidin-4-yl)amino]-3,4′-bipyridin-5-yl}-2,4-difluorobenzenesulfonamide]
< 10 nM	–	Cc1c(-c2ccnc(Nc3ccnc(-c4ccccc4)n3)c2)cnc(Cl)c1NS(=O)(=O)c1ccc(F)cc1F [Compound I-264, N-{6-chloro-4-methyl-2′-[(2-phenylpyrimidin-4-yl)amino]-3,4′-bipyridin-5-yl}-2,4-difluorobenzenesulfonamide]
< 10 nM	–	Cc1ncc(-c2ccnc(Nc3ncccn3)c2)cc1NS(=O)(=O)c1ccc(F)cc1F [Compound I-265, 2,4-difluoro-N-[6-methyl-2′-(pyrimidin-2-ylamino)3,4′-bipyridin-5-yl]benzenesulfonamide]
< 10 nM	–	CCN(C)S(=O)(=O)Nc1cc(-c2ccnc(NC(C)=O)c2)cnc1C [Compound I-273, N-(5-{[ethyl(methyl)sulfamoyl]amino}-6-methyl-3,4′-bipyridin-2′-yl)acetamide]
